Entries after “also recorded” stand apart in the source; their conditions may differ.
Columns and labels:
SKL cells = test: HSPC homing to bone marrow in vivo; set-up: species or system mouse; conditions: for increase in in vivo marrow homing efficiency: pulse-exposed grafts or purified SKL cells, 16 hours post-transplant; for SKL cells homed to the marrow: vs vehicle-treated or un-manipulated cells
Experimental: CD45.2 WBM was labeled with CFSE (Molecular Probes, Eugene, Oreg.) washed and treated on ice with either 1 microMolar dmPGE2 or vehicle. After treatment, cells were washed and 2×10^7 cells transplanted into lethally irradiated CD45.2 mice. After 16 hours, femurs and tibias were flushed, and a proportion of mouse marrow Lin^+ cells depleted using MACS microbeads (Miltenyi Biotech), stained with fluorochrome-conjugated-antibodies specific for biotin (lineage), c-kit (K), and Sca-1 (S) and the total number of CFSE^+ WBM (non lineage depleted), KL and SKL cells determined. For congenic homing studies, Lin^neg CD45.1 cells were treated on ice with 1 microMolar dmPGE2, vehicle, or PBS. After incubation, cells were washed and 2×10^6 cells transplanted into CD45.2 mice. After 16 hours, recipient bone marrow was harvested, lineage depleted, stained, and donor CD45.1 SKL cells determined. For competitive, head-to-head homing studies using sorted SKL cells, Lin^neg cells from CD45.2 and CD45.1 mice were FACS sorted, cells treated with either dmPGE2 or vehicle for 2 hours, washed and 3×10^4 CD45.1 (vehicle or dmPGE2 treated) plus 3×10^4 CD45.2 (dmPGE2 or vehicle treated) SKL cells transplanted into lethally irradiated F1 Hybrid mice. To evaluate the role of CXCR4 in homing studies, Lin^neg CD45.2 cells were treated on ice with vehicle or 1 microMolar dmPGE2 plus 10 microMolar AMD3100 (AnorMed Inc., Vancouver, BC, Canada) and 2×10^6 treated cells injected into lethally irradiated CD45.1 mice. Homed SKL cells were analyzed 16 hours post-transplant.
Irrespective of its cause a marrow niche is required for HSPC to self-renew and differentiate and it is very likely that only HSPC homing to these niches can provide long-term repopulation. Referring now to FIG. 3A, in order to assess HSPC homing, CFSE labeled whole bone marrow (WBM) CD45.2 cells were pulsed with dmPGE2 or vehicle for 2 hours on ice, washed and injected IV in lethally irradiated CD45.2 hosts. After 16 hours, total CFSE^+ cells homing to bone marrow as well as the number of homed events within the KL and SKL cell populations were quantified.
Highly purified SKL cells from both CD45.2 and CD45.1 mice were isolated by FACS sorting, treated with dmPGE2 or vehicle, and 3×10^4 vehicle-treated CD45.1 cells plus 3×10^4 dmPGE2-treated CD45.2 cells transplanted into CD45.1/CD45.2 mice. An additional cohort was concurrently transplanted with congenic strain and treatment groups were switched to test for any bias in strain homing. […] Although SKL cells are not a homogenous HSPC population, they are highly enriched for LTRC (Okada et al., 1992; Spangrude and Scollay, 1990).
To evaluate the role of CXCR4 in homing, Lineage^neg CD45.2 cells were treated with vehicle or 1 microMolardmPGE2 plus 10 microMolar AMD3100, 2×10^6 treated cells injected into lethally-irradiated CD45.1 mice and homed SKL cells recovered 16 hours post-transplant and analyzed by FACS. Referring now to FIG. 11, homing efficiency of vehicle and dmPGE2 treated cells to bone marrow in the absence and presence of 10 microMolar AMD3100. Cells were incubated with AMD3100 for 30 minutes prior to the homing assay.

[1] = system: Survivin in murine SKL cells; test: Intracellular Survivin by FACS, murine SKL cells; type: cell-based, mouse; conditions: vs control; for increase in Survivin protein, murine SKL cells: 24 hours post-pulse
From the text: All antibodies were purchased from BD Biosciences unless otherwise noted. For detection and sorting of murine KL and SKL cells, streptavidin conjugated with PE-Cy7 (to stain for biotinylated MACS lineage antibodies (Miltenyi Biotech, Auburn, Calif.)), c-kit-APC, Sca-1-PE or APC-Cy7, CD45. 1-PE and CD45.2-FITC were used. UCB CD34^+ cells were detected using anti-human-CD34-APC. For multilineage analysis, APC-Cy7-Mac-1, PE-Cy7-B-220 and APC-CD3 were used. EP receptors were detected with anti EP1, EP2, EP3 and EP4 rabbit IgG (Cayman Chemicals) and secondary staining with FITC-goat-anti-rabbit IgG (Southern Biotech, Birmingham, Ala.). CXCR4 expression was analyzed using streptavidin-PECy7, c-kit-APC, Sca-1-APC-Cy7, and CXCR4-PE. Apoptosis was measured with FITC-Annexin-V. For Survivin and active caspase-3 detection, cells were permeabilized and fixed using the CytoFix/CytoPerm kit (BD) and stained with anti-active-caspase-3-FITC Flow Kit (BD) or Survivin-PE (R&D Systems).
Expression of EP receptors, CXCR4 and Survivin Replicate Lin^neg cell samples from CD45.2 mice were stained for SKL and each of the EP receptors and surface receptor expression on KL and SKL cells determined by FACS. For human EP receptors, UCB was obtained from Wishard Hospital, Indianapolis, Ind. with Institutional Review Board approval. Mononuclear cells were isolated on Ficoll-Paque™ Plus (Amersham Biosciences) and CD34^+ cells positively selected with MACS microbeads (Miltenyi Biotech) (Fukuda and Pelus, 2001). Replicate cells were stained for CD34 and each of the EP receptors and surface expression determined by FACS. To evaluate CXCR4, Survivin and active caspase-3, Lin^neg cells or CD34^+ UCB were treated on ice with either 1 microMolar dmPGE2 or vehicle control for 2 hours, washed, and then cultured in RPMI-1640+10% FBS at 37° C. for 24 hours. Cells were stained for SKL (murine cells) and CXCR4, Survivin, and/or active caspase-3, as described above, and analyzed by FACS. […]

In the case of `CCCCC[C@H](O)/C=C/[C@H]1[C@H](O)CC(=O)[C@@H]1C/C=C\CCCC(=O)O` [PGE2, Prostaglandin E2], the “increase in in vivo marrow homing efficiency” value (SKL cells) is reported as about 2 fold, the “SKL cells homed to the marrow” value (SKL cells; 16 hours) is reported as “higher proportion” and the “increase in Survivin protein, murine SKL cells” value [1] is reported as 1.7 fold.

In the case of `CCCCC(C)(C)[C@H](O)/C=C/[C@H]1[C@H](O)CC(=O)[C@@H]1C/C=C\CCCC(=O)O` [dmPGE2, 16,16-dimethyl prostaglandin E2], the “increase in in vivo marrow homing efficiency” value (SKL cells) is reported as 2 fold, the “percentage of CFSE+ cells homing to the marrow, total WBM cells” value (SKL cells; vs vehicle-treated cells, 16 hours) is reported as “No difference” and the “SKL cells homed to the marrow” value (SKL cells; 16 hours) is reported as “significantly more SKL cells homed; also recorded: significantly greater percentage of SKL cells”. The “increase in Survivin protein, murine SKL cells” value [1] was 1.7 fold and the “Survivin mRNA” value ([1]; QRT-PCR) was “elevated Survivin mRNA”.
